# Results reported in article PMC5863496, “Mesobuthus Venom-Derived Antimicrobial Peptides Possess Intrinsic Multifunctionality and Differential Potential as Drugs” (Frontiers in Microbiology, 2018).
# Ends that are not written are not given here.
# How the values were obtained:
# Assay in all cases: Inhibition-zone assay (CL)
# Type in all cases: cell-based
# [1] = test system: Staphylococcus aureus J685; conditions: SA J685, N.A. = no activity at 0.8 nmol peptide each well
# Experimental: (§1) The antimicrobial activity of seven peptides, including MeuFSPL-1, MeuFSPL-2, Marmelittin, Melittin, Meucin-22, Marcin-22, and MeuTXKβ1, was evaluated by the inhibition-zone assay previously described in our studies (Hultmark, [1998]; Zhu et al., [2012a]; Zhu and Gao, [2014]). Temperatures used were 30 or 37°C for bacteria or 28°C for fungi. Media used were Luria-Bertani (LB) Broth (10 g tryptone, 5 g yeast extract, and 5 g NaCl in 1 l of water) or Nutrient Broth (10 g peptone, 5 g beef extract powder, and 5 g NaCl in 1 l of water) or GYM(Isp2) (4 g yeast extract, 10 g malt extract, 4 g glucose, 2 g CaCO3 in 1 l of water) for bacteria or Potato Dextrose Broth (200 g patato and 20 g glucose in 1 l of water) for fungi. To make plates, 10 μl of microbial culture (~2 × 10^6 bacterial cells or fungal spores/ml) were mixed in 6 ml of medium containing 0.8% agar and poured into Peri dishes of 9.0 cm diameter. Wells with a diameter of 2 mm were punched into the medium, filled with 2 μl of sample each well. In this assay, three different doses of peptides were applied to three independent wells in one standard bacterial plate. After incubation overnight, inhibition zones were measured and used to calculate lethal concentrations (CL), a concentration just sufficient to inhibit bacterial growth (Hultmark, [1998]; Gao et al., [2009]). CL values are calculated from a plot of d^2 against log n, where d is the diameter (in cm) and n is the amount of sample applied in the well (in nmol). The plot is linear and thus CL can be calculated from the slope (k) and the intercept (m) of this plot. The formula used here is CL = 2.93/ak10^m/k, where “a” is the thickness of the bacterial plate and “CL” is in μM.
# [2] = test system: Staphylococcus aureus J698; conditions: SA J698, N.A. = no activity at 0.8 nmol peptide each well
# Experimental: as §1
# [3] = test system: Bacillus subtilis CGMCC 1.2428; conditions: BS CGMCC 1.2428, N.A. = no activity at 0.8 nmol peptide each well
# Experimental: as §1
# [4] = test system: Streptococcus sanguinis ATCC 1.2497; conditions: SSAN ATCC 1.2497, N.A. = no activity at 0.8 nmol peptide each well
# Experimental: as §1
# [5] = test system: Escherichia coli Am. J23a; conditions: EC Am. J23a, N.A. = no activity at 0.8 nmol peptide each well
# Experimental: as §1
# [6] = test system: methicillin-resistant Staphylococcus aureus P1374; conditions: MRSA P1374, N.A. = no activity at 0.8 nmol peptide each well
# Experimental: as §1
# [7] = test system: methicillin-resistant coagulase-negative Staphylococcus P1369; conditions: MRCNS P1369, N.A. = no activity at 0.8 nmol peptide each well
# Experimental: as §1
# [8] = test system: penicillin-resistant Staphylococcus epidermidis P1389; conditions: PRSE P1389, N.A. = no activity at 0.8 nmol peptide each well
# Experimental: as §1
# [9] = test system: methicillin-sensitive Staphylococcus aureus CGMCC 1.89; conditions: MSSA CGMCC 1.89, N.A. = no activity at 0.8 nmol peptide each well
# Experimental: as §1
# [10] = test system: Staphylococcus aureus J700; conditions: SA J700, N.A. = no activity at 0.8 nmol peptide each well
# Experimental: as §1
# [11] = test system: Micrococcus luteus CGMCC 1.0290; conditions: ML CGMCC 1.0290, N.A. = no activity at 0.8 nmol peptide each well
# Experimental: as §1
# [12] = test system: Staphylococcus warneri ATCC 1.2824; conditions: SW ATCC 1.2824, N.A. = no activity at 0.8 nmol peptide each well
# Experimental: as §1
# [13] = test system: methicillin-resistant Staphylococcus aureus P1386; conditions: MRSA P1386, N.A. = no activity at 0.8 nmol peptide each well
# Experimental: as §1
# [14] = test system: penicillin-resistant Staphylococcus aureus P1383; conditions: PRSA P1383; inhibition-zone assay; N.A. = no activity at 0.8 nmol peptide each well
# Experimental: as §1
# Escherichia coli D. G2b = conditions: EC D. G2b, N.A. = no activity at 0.8 nmol peptide each well
# Experimental: as §1
# [15] = test system: Escherichia coli CIP. J14b; conditions: EC CIP. J14b, N.A. = no activity at 0.8 nmol peptide each well
# Experimental: as §1
# [16] = test system: Streptococcus salivarius ATCC 1.2498; conditions: SSAL ATCC 1.2498, N.A. = no activity at 0.8 nmol peptide each well
# Experimental: as §1
# [17] = test system: Streptococcus mutans ATCC 1.2499; conditions: SM ATCC 1.2499, N.A. = no activity at 0.8 nmol peptide each well
# Experimental: as §1
# [18] = test system: Escherichia coli ATCC 25922; conditions: EC ATCC 25922, N.A. = no activity at 0.8 nmol peptide each well
# Experimental: as §1
# [19] = test system: Stenotrophomonas maltophilia CGMCC 1.1788; conditions: SMAL CGMCC 1.1788, N.A. = no activity at 0.8 nmol peptide each well
# Experimental: as §1
# [20] = test system: Escherichia coli Am. J16c; conditions: EC Am. J16c, N.A. = no activity at 0.8 nmol peptide each well
# Experimental: as §1
# [21] = test system: Bacillus megaterium CGMCC 1.0459; conditions: BM CGMCC 1.0459, N.A. = no activity at 0.8 nmol peptide each well
# Experimental: as §1
# [22] = test system: penicillin-sensitive Staphylococcus epidermidis P1111; conditions: PSSE P1111, N.A. = no activity at 0.8 nmol peptide each well
# Experimental: as §1
Molecule,Lethal concentration (CL) [1] [µM],Lethal concentration (CL) [2] [µM],Lethal concentration (CL) [3] [µM],Lethal concentration (CL) [4] [µM],Lethal concentration (CL) [5] [µM],Lethal concentration (CL) [6] [µM],Lethal concentration (CL) [7] [µM],Lethal concentration (CL) [8] [µM],Lethal concentration (CL) [9] [µM],Lethal concentration (CL) [10] [µM],Lethal concentration (CL) [11] [µM],Lethal concentration (CL) [12] [µM],Lethal concentration (CL) [13] [µM],Lethal concentration (CL) [14] [µM],Lethal concentration (CL) (Escherichia coli D. G2b) [µM],Lethal concentration (CL) [15] [µM],Lethal concentration (CL) [16] [µM],Lethal concentration (CL) [17] [µM],Lethal concentration (CL) [18] [µM],Lethal concentration (CL) [19] [µM],further results
"CC[C@H](C)[C@H](NC(=O)CN)C(=O)NCC(=O)N[C@@H](C)C(=O)N[C@H](C(=O)N[C@@H](CC(C)C)C(=O)N[C@@H](CCCCN)C(=O)N[C@H](C(=O)N[C@@H](CC(C)C)C(=O)N[C@H](C(=O)N[C@H](C(=O)NCC(=O)N[C@@H](CC(C)C)C(=O)N1CCC[C@H]1C(=O)N[C@@H](C)C(=O)N[C@@H](CC(C)C)C(=O)N[C@H](C(=O)N[C@@H](CO)C(=O)N[C@@H](Cc1c[nH]c2ccccc12)C(=O)N[C@H](C(=O)N[C@@H](CCCCN)C(=O)N[C@@H](CCCNC(=N)N)C(=O)N[C@@H](CCCCN)C(=O)N[C@@H](CCCNC(=N)N)C(=O)N[C@@H](CCC(N)=O)C(=O)N[C@@H](CCC(N)=O)C(N)=O)[C@@H](C)CC)[C@@H](C)CC)[C@@H](C)O)[C@@H](C)O)C(C)C)C(C)C [Melittin, reference compound]",13.70,12.08,9.2,16.41,18.20,11.6,9.3,9.1,7.9,12.08,7.5,1.37,9.3,9.1,18.20,18.20,18.20,9.37,14.4,18.72,Lethal concentration (CL) [20]: 24.54 µM; Lethal concentration (CL) [21]: 11.6 µM; Lethal concentration (CL) [22]: 13.4 µM
FFGHLFKLATKIIPSFFRRKNQ [MAC-22],2.39,2.39,2.11,9.12,12.70,1.35,1.35,3.72,1.35,2.39,2.58,4.45,1.35,2.11,12.95,12.03,4.22,4.22,10.69,6.78,Lethal concentration (CL) [20]: 15.15 µM; Lethal concentration (CL) [21]: 1.35 µM; Lethal concentration (CL) [22]: 1.35 µM
FFGHLFKLATKIIPSLFQRKKE [MUC-22],2.66,2.66,1.86,3.37,7.36,0.87,2.21,0.56,1.35,2.66,2.71,3.76,1.88,0.87,9.93,11.65,4.22,2.39,7.95,3.79,Lethal concentration (CL) [20]: 7.49 µM; Lethal concentration (CL) [21]: 3.72 µM; Lethal concentration (CL) [22]: 1.61 µM
FLFSLIPSAISGLISAFKGRRKRDLN-NH2 [MarMEL],8.41,6.24,3.13,4.70,4.69,2.60,3.01,3.12,4.87,10.86,1.85,0.18,8.11,2.35,6.24,8.41,4.70,2.85,6.41,4.14,Lethal concentration (CL) [20]: 7.75 µM; Lethal concentration (CL) [21]: 2.86 µM; Lethal concentration (CL) [22]: 4.24 µM
